One molecule from PMC9452538, “The antimicrobial peptide LI14 combats multidrug-resistant bacterial infections” (Communications Biology, 2022) can be followed below.

SMILES strings stand for the structures. Peptide text beside a SMILES is read from it.

For the test, the system named is MRSA T144 or E. coli B2. The test is described as follows: Rat skin wound infection model. To be noted: MRSA T144 or E. coli B2 infected skin wound; LI14 5 or 10 μg topically; 8 days; n = 4. Format: in vivo, rats. The procedure:
The rats (n = 4 biologically independent animals per group) were anesthetized and a 2 cm wound model was constructed on their back. Then, 100 μL of MRSA T144 or E. coli B2 cultures were dropped on the wounds (10^6 CFUs per mouse), respectively. At 1 h post-infection, 100 μL of LI14 peptide (5 or 10 μg), or the combination of LI14 peptide with ampicillin/rifampicin (5 + 5 μg) were gently inoculated over the scar with a pipette tip, respectively. Wound size was recorded for 8 days, and on the 8th day, the rats were euthanized, and wound tissue was removed aseptically to measure CFUs and for following hematoxylin and eosin (H&E) staining.
(a-d) Mouse skin wound infection models by MRSA T144 (n = 4 biologically independent animals per group). a Photographs of wounds treated with LI14 (5 μg and 10 μg) or in combination with ampicillin (5 + 5 μg) for 0, 4 and 8 days (scale bar, 1 cm). (b) The wound size at 0th, 4th and 8th day after infection by MRSA T144. (c) The subeschar bacterial colonies at 8th day. (d) H.E. staining for the histological change of skin wound at 8th day (scale bar, […]
(e-h) Mouse skin wound infection models by E. coli B2 (n = 4 biologically independent animals per group). (e) Photographs of wounds treated with LI14 (5 μg and 10 μg) or in combination with rifampicin for (5 + 5 μg) for 0, 4 and 8 days (scale bar, 1 cm). […]

Consider `CC[C@H](C)[C@H](NC(=O)[C@H](CCCNC(=N)N)NC(=O)[C@H](CS)NC(=O)[C@H](CC(C)C)NC(=O)[C@H](CCCCN)NC(=O)[C@H](CCCCN)NC(=O)[C@H](CC(C)C)NC(=O)[C@@H](NC(=O)[C@H](CCCNC(=N)N)NC(=O)[C@H](CS)NC(=O)[C@H](CC(C)C)NC(=O)[C@H](CCCCN)NC(=O)[C@H](CCCCN)NC(=O)[C@@H](N)CC(C)C)[C@@H](C)CC)C(N)=O` [LI14] (H-LKKLCRILKKLCRI-NH2), for which the “Wound closure and number of colonies” value is “distinctly improved wound closure and decreased the number of colonies”.
